Laboratory results taken from article PMC12136037, “Type II kinase inhibitors that target Parkinson’s disease–associated LRRK2” (Science Advances, 2025).
Several values for one entry are separate records, joined by “and”; a condition that tells them apart may be missing. Equal entries are not always repeated.

How the values were obtained:
[1] = target: T1, ~100 representative kinases (Homo sapiens, UniProt Q9H4A3); test: DSF 100 kinase selectivity screen; format: binding; settings: Protein WNK1; DSF; average of three replicates;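 further: compound tested at 20 µM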
T1 construct: Recombinant protein kinase domains with a concentration of 2 μM
Outline: (§1)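 Each kinase domain, at 2 μM, is mixed with 20 μM test compound and SYPRO Orange in Hepes (20 mM, pH 7.5) with 500 mM NaCl. Temperature is then raised at 3°C/min and fluorescence-monitored unfolding yields the melting temperature change, ΔTm in degrees Celsius.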

[2] = target: T2, ~100 representative kinases (Homo sapiens, UniProt O96013); test: DSF 100 kinase selectivity screen; format: binding; settings: protein PAK4; average of three replicates;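 further: compound tested at 20 µM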
T2 construct: Recombinant protein kinase domains with a concentration of 2 μM
Outline: as §1

[3] = target: T3, ~100 representative kinases (Homo sapiens, UniProt Q5VT25); test: DSF 100 kinase selectivity screen; format: binding; settings: Protein CDC42BPA; average of three replicates;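 further: compound tested at 20 µM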
T3 construct: Recombinant protein kinase domains with a concentration of 2 μM
Outline: as §1

[4] = target: T4, ~100 representative kinases (Homo sapiens, UniProt Q2M2I8); test: DSF 100 kinase selectivity screen; format: binding; settings: Protein AAK1; average of three replicates;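 further: compound tested at 20 µM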
T4 construct: Recombinant protein kinase domains with a concentration of 2 μM
Outline: as §1

[5] = target: T5, ~100 representative kinases (Homo sapiens, UniProt P12931); test: DSF 100 kinase selectivity screen; format: binding; settings: Protein SRC; DSF; average of three replicates;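 further: compound tested at 20 µM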
T5 construct: Recombinant protein kinase domains with a concentration of 2 μM
Outline: as §1

[6] = target: T6, ~100 representative kinases (Homo sapiens, UniProt P27448); test: DSF 100 kinase selectivity screen; format: binding; settings: protein MARK3; average of three replicates;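 further: compound tested at 20 µM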
T6 construct: Recombinant protein kinase domains with a concentration of 2 μM
Outline: as §1

[7] = target: T7, LRRK2^RCKW (Homo sapiens, UniProt Q5S007); test: Biochemical LRRK2 activity assay (PhosphoSense, AssayQuant SOX peptide AQT0615); settings: for IC50: LRRK2^RCKW kinase activity, in vitro; for normalized response (LRRK2 activity): normalized to 0% (no kinase) and 100% (no inhibitor) control, two singlicate columns per compound
T7 construct: LRRK2 R1327 to E2527; His6-Z-tag (TEV cleavable) (N, cleaved yes); host or cells: Sf9 insect cells (baculovirus)
T7 sequence (Q5S007 1327-2527): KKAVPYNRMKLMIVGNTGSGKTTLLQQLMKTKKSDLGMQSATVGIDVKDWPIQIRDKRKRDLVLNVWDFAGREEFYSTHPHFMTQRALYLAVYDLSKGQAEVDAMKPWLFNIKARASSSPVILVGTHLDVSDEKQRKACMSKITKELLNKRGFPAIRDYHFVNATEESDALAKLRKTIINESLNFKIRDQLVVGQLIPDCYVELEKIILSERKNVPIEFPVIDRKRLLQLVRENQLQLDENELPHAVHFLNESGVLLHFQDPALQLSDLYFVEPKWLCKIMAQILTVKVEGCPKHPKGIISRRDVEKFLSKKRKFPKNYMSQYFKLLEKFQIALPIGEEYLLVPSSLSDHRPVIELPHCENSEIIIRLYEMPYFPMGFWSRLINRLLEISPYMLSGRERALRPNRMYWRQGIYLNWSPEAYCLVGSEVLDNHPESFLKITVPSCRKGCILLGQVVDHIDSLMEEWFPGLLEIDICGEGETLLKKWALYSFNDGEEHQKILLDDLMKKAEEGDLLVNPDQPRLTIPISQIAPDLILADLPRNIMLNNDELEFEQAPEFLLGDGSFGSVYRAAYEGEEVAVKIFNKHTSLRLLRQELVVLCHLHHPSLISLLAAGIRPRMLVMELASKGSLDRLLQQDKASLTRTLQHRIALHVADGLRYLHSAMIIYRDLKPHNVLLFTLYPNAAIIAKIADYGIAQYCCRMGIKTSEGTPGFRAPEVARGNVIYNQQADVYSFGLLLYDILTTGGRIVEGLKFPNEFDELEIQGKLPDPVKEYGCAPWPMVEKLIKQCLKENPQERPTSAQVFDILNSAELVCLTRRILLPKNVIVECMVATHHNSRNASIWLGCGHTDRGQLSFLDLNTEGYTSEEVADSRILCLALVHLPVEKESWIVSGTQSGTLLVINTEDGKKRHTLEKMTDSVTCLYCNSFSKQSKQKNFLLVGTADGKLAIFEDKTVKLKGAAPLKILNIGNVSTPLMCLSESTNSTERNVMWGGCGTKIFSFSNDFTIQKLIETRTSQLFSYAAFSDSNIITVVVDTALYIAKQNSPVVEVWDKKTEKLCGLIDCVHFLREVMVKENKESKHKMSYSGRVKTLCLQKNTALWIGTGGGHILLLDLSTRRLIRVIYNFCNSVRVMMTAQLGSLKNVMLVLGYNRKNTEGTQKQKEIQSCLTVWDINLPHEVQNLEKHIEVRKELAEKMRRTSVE
Outline: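 Controls lacked protein and compound (0%) or compound only (100%). IC50 derived by nonlinear regression of normalized response versus log[inhibitor].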

T1 sequence (Q9H4A3 whole entry, the tested form may be a part): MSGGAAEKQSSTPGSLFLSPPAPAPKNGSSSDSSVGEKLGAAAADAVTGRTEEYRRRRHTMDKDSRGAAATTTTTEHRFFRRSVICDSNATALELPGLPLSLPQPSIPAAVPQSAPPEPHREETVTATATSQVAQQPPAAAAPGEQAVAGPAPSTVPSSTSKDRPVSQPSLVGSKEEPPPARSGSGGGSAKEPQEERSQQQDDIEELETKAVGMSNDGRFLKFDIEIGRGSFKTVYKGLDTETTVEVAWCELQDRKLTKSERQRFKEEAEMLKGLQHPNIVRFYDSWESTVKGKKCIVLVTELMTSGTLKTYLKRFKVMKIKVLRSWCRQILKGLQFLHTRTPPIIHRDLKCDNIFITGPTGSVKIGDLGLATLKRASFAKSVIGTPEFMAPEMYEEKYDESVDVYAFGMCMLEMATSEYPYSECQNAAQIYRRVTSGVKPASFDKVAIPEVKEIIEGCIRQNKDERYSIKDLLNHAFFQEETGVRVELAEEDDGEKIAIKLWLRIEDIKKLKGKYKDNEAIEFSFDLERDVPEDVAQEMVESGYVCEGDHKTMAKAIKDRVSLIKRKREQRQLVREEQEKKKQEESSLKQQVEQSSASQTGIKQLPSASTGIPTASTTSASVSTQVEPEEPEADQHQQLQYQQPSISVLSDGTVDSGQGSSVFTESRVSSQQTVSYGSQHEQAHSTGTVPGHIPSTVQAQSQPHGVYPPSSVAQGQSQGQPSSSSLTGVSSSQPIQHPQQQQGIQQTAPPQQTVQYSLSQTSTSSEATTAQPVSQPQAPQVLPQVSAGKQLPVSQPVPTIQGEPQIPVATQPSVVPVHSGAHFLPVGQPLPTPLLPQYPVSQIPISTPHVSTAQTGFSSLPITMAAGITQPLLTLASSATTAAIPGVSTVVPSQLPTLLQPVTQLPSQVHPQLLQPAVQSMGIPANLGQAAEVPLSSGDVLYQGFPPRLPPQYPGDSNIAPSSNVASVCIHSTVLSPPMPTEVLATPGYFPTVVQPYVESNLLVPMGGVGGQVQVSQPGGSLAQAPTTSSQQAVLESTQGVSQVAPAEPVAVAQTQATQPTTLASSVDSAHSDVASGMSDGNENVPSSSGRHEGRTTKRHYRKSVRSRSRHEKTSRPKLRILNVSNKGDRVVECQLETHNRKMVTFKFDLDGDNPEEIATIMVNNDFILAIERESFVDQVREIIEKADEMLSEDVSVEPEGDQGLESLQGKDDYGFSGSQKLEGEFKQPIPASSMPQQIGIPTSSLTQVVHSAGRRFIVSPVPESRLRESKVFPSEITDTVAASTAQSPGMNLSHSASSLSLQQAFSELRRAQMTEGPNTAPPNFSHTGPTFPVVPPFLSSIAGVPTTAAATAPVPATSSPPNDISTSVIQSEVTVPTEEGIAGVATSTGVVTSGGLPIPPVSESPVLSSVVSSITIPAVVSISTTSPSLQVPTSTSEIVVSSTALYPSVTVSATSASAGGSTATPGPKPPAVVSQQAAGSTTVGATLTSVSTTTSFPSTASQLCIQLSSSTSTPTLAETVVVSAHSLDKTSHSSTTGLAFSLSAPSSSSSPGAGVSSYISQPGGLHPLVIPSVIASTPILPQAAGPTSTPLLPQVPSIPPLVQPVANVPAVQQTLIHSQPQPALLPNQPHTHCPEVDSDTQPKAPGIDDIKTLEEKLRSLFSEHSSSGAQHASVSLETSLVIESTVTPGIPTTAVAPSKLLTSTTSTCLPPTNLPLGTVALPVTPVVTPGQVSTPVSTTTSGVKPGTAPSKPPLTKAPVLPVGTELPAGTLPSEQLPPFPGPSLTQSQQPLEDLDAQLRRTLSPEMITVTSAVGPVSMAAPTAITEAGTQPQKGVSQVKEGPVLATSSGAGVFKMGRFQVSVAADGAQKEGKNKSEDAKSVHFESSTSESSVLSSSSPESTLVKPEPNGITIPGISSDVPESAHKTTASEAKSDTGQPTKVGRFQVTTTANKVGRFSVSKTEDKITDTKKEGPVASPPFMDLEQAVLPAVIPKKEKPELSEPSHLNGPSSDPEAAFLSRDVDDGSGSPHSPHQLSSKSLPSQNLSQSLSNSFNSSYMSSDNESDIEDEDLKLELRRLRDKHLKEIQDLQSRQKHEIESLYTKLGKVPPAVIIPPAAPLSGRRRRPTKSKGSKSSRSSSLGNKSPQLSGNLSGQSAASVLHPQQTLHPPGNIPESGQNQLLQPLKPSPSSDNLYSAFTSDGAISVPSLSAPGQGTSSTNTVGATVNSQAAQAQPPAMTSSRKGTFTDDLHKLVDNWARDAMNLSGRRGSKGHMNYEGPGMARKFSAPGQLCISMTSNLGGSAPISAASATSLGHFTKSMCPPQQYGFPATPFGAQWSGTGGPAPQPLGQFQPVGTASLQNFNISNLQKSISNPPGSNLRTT
T6 sequence (P27448 whole entry, the tested form may be a part): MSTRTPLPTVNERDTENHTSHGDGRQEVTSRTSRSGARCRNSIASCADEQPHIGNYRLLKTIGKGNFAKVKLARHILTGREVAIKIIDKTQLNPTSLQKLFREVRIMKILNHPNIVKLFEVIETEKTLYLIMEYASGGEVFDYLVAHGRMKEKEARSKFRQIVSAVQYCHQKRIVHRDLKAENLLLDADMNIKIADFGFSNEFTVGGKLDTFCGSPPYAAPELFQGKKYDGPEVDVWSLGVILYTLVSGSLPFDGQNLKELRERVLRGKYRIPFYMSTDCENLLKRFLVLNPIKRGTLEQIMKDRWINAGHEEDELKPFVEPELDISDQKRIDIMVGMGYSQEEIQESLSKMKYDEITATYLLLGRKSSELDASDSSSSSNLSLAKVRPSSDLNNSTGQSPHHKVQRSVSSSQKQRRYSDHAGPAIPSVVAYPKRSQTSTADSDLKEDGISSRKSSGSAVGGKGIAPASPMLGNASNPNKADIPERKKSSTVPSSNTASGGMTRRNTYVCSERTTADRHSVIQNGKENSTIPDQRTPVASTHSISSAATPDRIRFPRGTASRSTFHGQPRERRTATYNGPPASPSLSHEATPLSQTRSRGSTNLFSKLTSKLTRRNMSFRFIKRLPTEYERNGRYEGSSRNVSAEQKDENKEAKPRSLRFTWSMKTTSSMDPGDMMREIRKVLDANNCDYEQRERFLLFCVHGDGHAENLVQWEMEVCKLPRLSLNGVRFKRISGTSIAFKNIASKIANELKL
T3 sequence (Q5VT25 whole entry, the tested form may be a part): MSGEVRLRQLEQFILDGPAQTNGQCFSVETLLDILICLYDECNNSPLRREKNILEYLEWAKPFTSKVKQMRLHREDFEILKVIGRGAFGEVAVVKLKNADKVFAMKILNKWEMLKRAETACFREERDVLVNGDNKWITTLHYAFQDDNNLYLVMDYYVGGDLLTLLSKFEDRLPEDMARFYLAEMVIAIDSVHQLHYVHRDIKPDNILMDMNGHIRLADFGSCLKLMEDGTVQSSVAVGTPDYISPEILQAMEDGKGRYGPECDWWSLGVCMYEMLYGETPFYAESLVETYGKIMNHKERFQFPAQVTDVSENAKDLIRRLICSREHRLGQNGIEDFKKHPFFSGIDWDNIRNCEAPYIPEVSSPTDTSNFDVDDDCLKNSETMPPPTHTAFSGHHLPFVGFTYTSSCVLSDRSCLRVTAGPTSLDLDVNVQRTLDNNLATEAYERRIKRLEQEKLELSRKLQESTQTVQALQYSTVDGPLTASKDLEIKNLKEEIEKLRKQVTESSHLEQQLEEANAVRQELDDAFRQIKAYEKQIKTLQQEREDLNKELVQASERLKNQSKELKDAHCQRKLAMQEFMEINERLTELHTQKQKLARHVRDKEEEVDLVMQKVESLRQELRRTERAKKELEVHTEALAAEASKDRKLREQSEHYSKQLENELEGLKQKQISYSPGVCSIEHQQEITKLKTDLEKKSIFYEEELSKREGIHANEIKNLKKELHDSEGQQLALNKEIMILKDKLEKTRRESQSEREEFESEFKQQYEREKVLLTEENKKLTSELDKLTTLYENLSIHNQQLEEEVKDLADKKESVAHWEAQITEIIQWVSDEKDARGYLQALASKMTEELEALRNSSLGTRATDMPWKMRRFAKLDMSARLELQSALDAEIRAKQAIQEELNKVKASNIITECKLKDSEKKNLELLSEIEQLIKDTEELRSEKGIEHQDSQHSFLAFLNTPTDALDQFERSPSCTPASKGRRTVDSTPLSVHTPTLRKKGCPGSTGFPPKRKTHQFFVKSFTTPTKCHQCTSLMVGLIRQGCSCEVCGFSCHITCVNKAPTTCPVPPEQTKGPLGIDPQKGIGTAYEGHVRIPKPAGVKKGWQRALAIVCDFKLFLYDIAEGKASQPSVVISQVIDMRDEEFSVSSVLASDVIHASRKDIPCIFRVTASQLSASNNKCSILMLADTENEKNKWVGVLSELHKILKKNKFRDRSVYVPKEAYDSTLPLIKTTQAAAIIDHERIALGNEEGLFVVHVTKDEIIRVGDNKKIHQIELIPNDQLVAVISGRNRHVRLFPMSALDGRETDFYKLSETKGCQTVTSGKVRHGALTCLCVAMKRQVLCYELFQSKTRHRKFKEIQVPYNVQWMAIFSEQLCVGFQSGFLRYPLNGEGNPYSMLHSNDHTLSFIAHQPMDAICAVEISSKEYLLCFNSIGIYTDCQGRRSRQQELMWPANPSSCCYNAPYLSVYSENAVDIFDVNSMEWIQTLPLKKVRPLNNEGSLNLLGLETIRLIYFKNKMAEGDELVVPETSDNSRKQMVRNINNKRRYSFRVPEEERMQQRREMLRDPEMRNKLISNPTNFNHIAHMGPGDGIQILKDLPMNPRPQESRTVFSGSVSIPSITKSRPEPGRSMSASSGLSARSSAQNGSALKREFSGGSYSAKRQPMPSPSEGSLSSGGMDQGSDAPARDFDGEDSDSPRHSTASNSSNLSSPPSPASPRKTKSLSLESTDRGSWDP

dTm [1]	dTm [2]	dTm [3]	dTm [4]	dTm [5]	dTm [6]	IC50 [7]	normalized response (LRRK2 activity) ([7]; log[inhibitor(mol)] -4.82391)	normalized response (LRRK2 activity) ([7]; log[inhibitor(mol)] -5.12494)	normalized response (LRRK2 activity) ([7]; log[inhibitor(mol)] -5.60206)	normalized response (LRRK2 activity) ([7]; log[inhibitor(mol)] -6.30103)	normalized response (LRRK2 activity) ([7]; log[inhibitor(mol)] -6.90309)	normalized response (LRRK2 activity) ([7]; log[inhibitor(mol)] -7.30103)	normalized response (LRRK2 activity) ([7]; log[inhibitor(mol)] -7.60206)	normalized response (LRRK2 activity) ([7]; log[inhibitor(mol)] -8.09691)	normalized response (LRRK2 activity) ([7]; log[inhibitor(mol)] -8.61979)	normalized response (LRRK2 activity) ([7]; log[inhibitor(mol)] -9.09691)	normalized response (LRRK2 activity) ([7]; log[inhibitor(mol)] -9.39794)	Structure (SMILES)
1.32 K	0.80 K	-0.65 K	6.38 K	7.10 K	5.67 K	59.7 ± 2.9 nM	3.992% and -4.217%	-4.603% and -7.6443%	-5.899% and -7.93%	-0.5957% and -1.998%	20.6807% and 19.3416%	54.9087%	83.9541% and 76.0062%	102.755% and 100.691%	109.195% and 109.069%	110.935% and 112.883%	72.3369% and 118.777%	CC(C)(C)c1cc(NC(=O)Nc2cccc(-c3c[nH]c4ncnc(N5CCOCC5)c34)c2)n(-c2ccc3ncccc3c2)n1 [Compound 28]
1.43 K	1.80 K	-0.10 K	5.32 K	5.51 K	2.95 K	20.2 ± 0.01 nM		-15.0137% and -16.6919%	-14.1253% and -13.1052%	-11.8493% and -10.5551%	-5.6961% and -4.1002%	9.533% and 17.3374%	45.8935% and 45.9868%	84.3047% and 80.6906%	106.121% and 110.711%	109.51% and 103.466%	104.536% and 110.261%	Cc1ccc(-n2nc(C(C)(C)C)cc2NC(=O)Nc2cccc(-c3c[nH]c4ncnc(N5CCOCC5)c34)c2)cc1 [Compound 29]
-0.58 K	0.13 K	0.77 K	0.53 K	0.05 K	-0.48 K	135 ± 2 nM		-8.095% and -6.809%	75.5755% and 70.6669%	8.742% and 11.7467%	50.7191% and 51.183%	75.6682% and 82.0657%	86.9301% and 90.6015%	94.0388% and 92.0065%	101.276% and 93.5219%	104.187% and 96.8267%	100.869% and 63.9823%	Cc1ccc(-n2nc(C(C)(C)C)cc2NC(=O)Nc2cccc(-c3c[nH]c4nc(Cl)nc(N5CCOCC5)c34)c2)cc1 [Compound 30]
0.46 K	0.48 K	0.50 K	0.59 K	0.41 K	-0.26 K	82.4 ± 19 nM		-8.142% and -8.098%	-6.069% and -3.667%	1.516% and 5.662%	27.0499% and 37.6124%	59.8343% and 70.8356%	80.8168% and 85.4399%	99.1997% and 109.801%	111.451% and 122.71%	117.928% and 123.215%	115.57% and 119.935%	CC(=O)N1CCN(c2nc(Cl)nc3[nH]cc(-c4cccc(NC(=O)Nc5cc(C(C)(C)C)nn5-c5ccc(C)cc5)c4)c23)CC1 [Compound 31]
0.40 K	-0.14 K	-0.93 K	2.52 K	0.60 K	-1.24 K	4.96 ± 0.11 nM		-4.747% and -10.7141%	-11.8877% and -7.237%	-22.7354% and -19.8398%	-16.5877% and -9.211%	-3.623% and 0.9398%	12.0233% and 5.13%	39.1206% and 42.4988%	81.2335% and 75.689%	74.4661% and 78.5518%	100.642% and 97.3515%	COc1cc(C(=O)N2CCOCC2)c(F)cc1Nc1nc(N(C)C)c2c(Cl)c[nH]c2n1 [Compound 36]
0.04 K	0.22 K	-0.18 K	0.85 K	0.09 K	0.75 K	7.21 ± 2.1 nM	24.6753% and 13.9482%	2.952% and 3.194%	-7.27% and -5.12%	-12.6171% and -9.349%	-7.193% and -5.751%	5.9468% and 5.579%	17.6994% and 24.1378%	34.6729% and 53.1381%	84.0195% and 83.6411%	89.904% and 89.2624%	99.9785% and 100.571%	COc1cc(S(C)(=O)=O)ccc1Nc1nc(N(C)C)c2c(Cl)c[nH]c2n1 [Compound 37]

Structure (SMILES)	dTm [1]	dTm [2]	dTm [3]	dTm [4]	dTm [5]	dTm [6]	IC50 [7]	normalized response (LRRK2 activity) ([7]; log[inhibitor(mol)] -4.82391)	normalized response (LRRK2 activity) ([7]; log[inhibitor(mol)] -5.12494)	normalized response (LRRK2 activity) ([7]; log[inhibitor(mol)] -5.60206)	normalized response (LRRK2 activity) ([7]; log[inhibitor(mol)] -6.30103)	normalized response (LRRK2 activity) ([7]; log[inhibitor(mol)] -6.90309)	normalized response (LRRK2 activity) ([7]; log[inhibitor(mol)] -7.30103)	normalized response (LRRK2 activity) ([7]; log[inhibitor(mol)] -7.60206)	normalized response (LRRK2 activity) ([7]; log[inhibitor(mol)] -8.09691)	normalized response (LRRK2 activity) ([7]; log[inhibitor(mol)] -8.61979)	normalized response (LRRK2 activity) ([7]; log[inhibitor(mol)] -9.09691)	normalized response (LRRK2 activity) ([7]; log[inhibitor(mol)] -9.39794)
CCSc1nc(NC)c2c(-c3cccc(NC(=O)Nc4cc(C(C)(C)C)nn4-c4ccc(C)cc4)c3)c[nH]c2n1 [Compound 32]	0.83 K	0.61 K	0.69 K	0.08 K	0.61 K	0.16 K	296 ± 39 nM		-7.459% and -2.016%	19.5756% and 16.293%	31.5753% and 35.852%	72.0233% and 73.3531%	83.8241% and 86.8594%	89.687% and 98.7972%	90.4381% and 87.8004%	96.4865% and 91.0964%	94.4983% and 98.9209%	96.9901% and 60.5361%
